{"source": "patent US8614241B2", "about": "“Ester compound and use thereof” (Sumitomo Chemical Company, Limited, priority 2010, dated 2013)", "tested_on": "German cockroaches (Blattella germanica)", "assay": "Knock-down test by spraying oil solution on German cockroaches", "assay_type": "in vivo", "conditions": "0.00625% (w/v) oil solution, 1.5 ml sprayed, ten adult German cockroaches (5 males, 5 females)", "experimental": "Zero point zero zero six two five (0.00625) part of the compound of the present inventions (1) and (2) was dissolved in 10 parts of isopropyl alcohol and the solution was mixed with 89.99375 parts of deodorized kerosene to prepare a 0.00625% (w/v) oil solution.\nTen adult German cockroaches (Blattella germanica, 5 males and 5 females) were released in a test container (diameter 8.75 cm, 7.5 cm high, the bottom face is made of 16 mesh metallic wire), the inner face on which butter was applied, and the container was set at the bottom of a test chamber (bottom face: 46 cm×46 cm, height: 70 cm).\nEach 1.5 ml of the oil solution of the compound of the present invention (1) and (2) was sprayed using a spray gun at a pressure of 0.4 kg/cm^2 from 60 cm higher than the upper face of the container. Thirty seconds after the spraying, the container was pulled out from the chamber. Two minutes after spraying, the number of knocked-down cockroaches was counted and a knock-down ratio was determined (repeated once). A knocked-down ratio was calculated by the following equation. Knocked-down ratio (%)=(Number of knocked-down cockroaches/Number of test cockroaches)×100 The results (2 minutes after spraying) are shown in Table 1.", "data": [{"smiles": "C#CCn1c(C)nn(COC(=O)[C@@H]2[C@@H](/C=C(C#N)/C=C/C)C2(C)C)c1=O", "note": "[compound of the present invention (2), 3-methyl-5-oxo-4-(2-propynyl)-4,5-dihydro-[1,2,4]triazolylmethyl=(1R)-trans-3-[(1Z,3E)-2-cyano-1,3-pentadienyl]-2,2-dimethylcyclopropane carboxylate]", "values": [{"measurement": "Knock-down ratio (%) 2 minutes after spraying", "result": 100, "unit": "%"}]}, {"smiles": "C#CCn1c(C)nn(COC(=O)[C@@H]2[C@@H](/C=C(\\C#N)C=C)C2(C)C)c1=O", "note": "[compound of the present invention (1), 3-methyl-5-oxo-4-(2-propynyl)-4,5-dihydro-[1,2,4]triazolylmethyl=(1R)-trans-3-[(1Z)-2-cyano-1,3-butadienyl]-2,2-dimethylcyclopropane carboxylate]", "values": [{"measurement": "Knock-down ratio (%) 2 minutes after spraying", "result": 100, "unit": "%"}]}]}
